Experimental data reported in PMC3688528, “Location of the CD8 T Cell Epitope within the Antigenic Precursor Determines Immunogenicity and Protection against the Toxoplasma gondii Parasite” (PLoS Pathogens, 2013).
Where “and” joins values, the source holds several entries; their conditions need not be identical. Equal values may be shown once.

Columns and labels:
L^d MHC I molecule = molecular target: T1, L^d MHC I molecule (Mus musculus, UniProt P01897); assay: MHC I stabilization assay on TAP-deficient RMA-S.L^d cells; type: binding; settings: flow cytometry MFI
T1 construct: expressed in transfected cells; host or cells: RMA-S.L^d cells (TAP-deficient), gift from T. Hansen
T1 sequence (P01897 25-362): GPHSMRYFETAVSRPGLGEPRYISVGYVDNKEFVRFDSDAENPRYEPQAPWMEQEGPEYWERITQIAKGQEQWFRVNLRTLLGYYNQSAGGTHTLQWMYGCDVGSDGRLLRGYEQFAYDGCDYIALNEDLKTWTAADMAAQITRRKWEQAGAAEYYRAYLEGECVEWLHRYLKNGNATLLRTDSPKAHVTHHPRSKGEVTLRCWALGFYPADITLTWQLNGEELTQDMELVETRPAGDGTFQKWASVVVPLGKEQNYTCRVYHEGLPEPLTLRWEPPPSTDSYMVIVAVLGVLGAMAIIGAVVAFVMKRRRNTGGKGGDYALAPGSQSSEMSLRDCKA
T1 sequence (P01887 21-119 partner): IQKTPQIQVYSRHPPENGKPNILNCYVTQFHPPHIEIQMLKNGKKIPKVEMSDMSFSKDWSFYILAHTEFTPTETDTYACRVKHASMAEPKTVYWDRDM
Source text: We took advantage of the genetic diversity among three common T. gondii strains (type I, II and III). While the GRA4-derived SM9 and ROP7-derived IF9 peptides are conserved (data not shown and ToxoDB.org), the GRA6-derived HF10 peptide is polymorphic between type II and type I/III strains. Within the last 10 residues of GRA6, four non-synonymous single-nucleotide polymorphisms differentiate the type II sequence (HF10: HPGSVNEFDF) from the type I/III sequence (HY10: HPERVNVFDY) (Fig. 1A and Fig. S1 in Text S1). We noted that instead of a phenylalanine (F), the C-terminal residue in GRA6III is a tyrosine (Y), a residue not expected to be an appropriate anchor residue for L^d binding. To evaluate the ability of HF10 and HY10 to bind to L^d, we used an MHC I stabilization assay. TAP-deficient RMA-S cells display empty, unstable MHC I molecules and addition of exogenous peptides that can bind to MHC I can stabilize their expression on the cell surface, as read out by flow cytometry.
RMA-S.L^d cells were a gift from T. Hansen (St-Louis, MO, USA). RMA-S.L^d cells were incubated at 37°C, 5% CO2 for 8 h to saturate the culture medium with CO2. The flask was sealed with parafilm and incubated at RT overnight. The next day, cells were washed with PBS and plated at 3×10^5 cells/well in a 96-W plate. Peptide was added to the cells in serial dilutions. The plate was incubated for 1 h at RT and 3 h at 37°C. Cells were stained with the 30-5-7 antibody (specific for conformed, peptide-bound L^d) and a phycoerythrine (PE)-coupled goat anti-mouse secondary antibody and analyzed by flow cytometry.

[1] = test system: naïve T. gondii-specific CD8α+ T cells in naive B10.D2 mice; assay: Naïve T cell enumeration by tetramer-based enrichment and flow cytometry; parameters: species or system mouse
Method: We next assessed whether abundance of peptide-specific T cells in the repertoire of naïve mice may control immunodominance. We employed a tetramer-based enrichment procedure, [24] to enumerate naïve T cells isolated from spleen and lymph nodes of uninfected mice and specific for each of the 3 epitopes. Numbers of T cell precursors were analyzed by flow cytometry after gating on a population of live dump^− (dump = B220, F4/80, MHC II) CD3^+ CD8α^+ cells (Fig. S4 in Text S1). […] Thus the immunodominance of HF10 cannot be explained by a high starting precursor frequency of specific T cells.
Spleen and major lymph nodes from individual naïve B10.D2 mice were harvested. Single cell suspension was stained with PE-labeled (Prozyme) SM9:L^d, IF9:L^d or HF10:L^d tetramers (NIH tetramer facility). Tetramer enrichment was performed on each sample with anti-PE magnetic beads (Miltenyi Biotec) and each sample was stained with antibodies (BD Biosciences) for flow cytometry analysis. Total numbers of CD8α^+tetramer^+ T cells per mouse were determined as before, [24].

[2] = test system: CD8 T cells from spleens of T. gondii-infected B10.D2 mice; assay: Ex vivo IFN-γ intracellular staining of splenocytes restimulated in vitro with peptide; type: cell-based; settings: splenocytes of B10.D2 mice 3 weeks post-infection with CEP+GRA6II; one representative mouse out of 3
Method: (§1) Mice were sacrificed 3 to 4 weeks after infection. Spleens were dissociated into single-cell suspensions in complete RPMI (Invitrogen) supplemented with 10% (vol/vol) FCS (Hyclone). Samples were depleted of erythrocytes with ACK lysis buffer (100 µM EDTA, 160 mM NH4Cl and 10 mM NaHCO3). Leukocytes from the brain were prepared as in [17]. In brief, brains were minced and digested for 1 h at 37°C with 1 mg/ml collagenase (Sigma) and 100 µg/ml DNAseI (Roche) in complete RPMI. Brain suspensions were filtered through 70-µm cell strainers and centrifuged for 10 min at 200 g. Cells were resuspended in 60% (vol/vol) Percoll (GE Healthcare), overlaid on 30% (vol/vol) Percoll and centrifuged 20 min at 1,000 g. Infiltrating mononuclear cells were collected from the gradient interface and the remaining erythrocytes were lyzed with ACK lysis buffer.
(§2) For other stainings, surfaces were labeled according to standard procedures with flow cytometry buffer (3% (vol/vol) FCS and 1 mM EDTA in PBS). Intracellular IFN-γ was detected with the Cytofix/Cytoperm kit (BD Pharmingen). DimerX H-2L^d:Ig (fusion protein of H-2L^d and immunoglobulin; BD Biosciences) was used according to the manufacturer's instructions and as described in [17]. All flow cytometry data were acquired on an XL Analyzer (Coulter) or a LSRII (Becton Dickinson) and were analyzed with FlowJo software (Tree Star).

[3] = test system: T. gondii-specific CD8 T cells of infected B10.D2 mice; assay: Ex vivo staining of peptide-specific CD8 T cells with peptide-loaded L^d DimerX; type: cell-based, mouse; settings: B10.D2 mice 4 weeks post-infection; HF10 value in CEP+GRA6II-infected mice; mean +/- s.d.; 3 independent experiments pooled; SD
Method: as §1, §2

type II parasite = settings: H2^d mice immunized with HF10-loaded bone marrow-derived dendritic cells; cited from earlier work
[4] = MHC I stabilization on RMA-S.L^d cells, representative of 3 assays
[5] = uninfected B10.D2 mice, tetramer enrichment

In the case of “HPGSVNEFDF [HF10, decamer peptide derived from type II GRA6 C-terminus, presented by L^d MHC I]”, the “Affinity for L^d relative to SM9 (in words)” value (L^d MHC I molecule; [4]) is reported as “fell in the same range as the T. gondii subdominant peptide SM9”, the “Affinity for L^d, fold higher than that of IF9, QL9 and YL9” value (L^d MHC I molecule; [4]) is reported as ~10 fold and the “Peptide concentration stabilizing L^d surface expression, fold lower compared to HY10” value (L^d MHC I molecule; RMA-S.L^d cells pulsed with serial peptide dilutions, 1 h RT and 3 h 37°C, 30-5-7 antibody, representative of 2 assays) is reported as 1000 fold. For the same sequence, the “Number of tetramer+ cells / mouse (naïve peptide-specific CD8α+ T cells)” value ([1]; spleen and lymph nodes of uninfected B10.D2 mice, peptide:L^d tetramer enrichment, mean, pooled from 3 independent experiments) was 400 cells / mouse, the “Frequency of naïve HF10-specific CD8 T cells, fold lower than IF9-specific” value [1, 5] was ~3 fold and the “Frequency of naïve HF10-specific CD8 T cells, fold lower than SM9-specific” value [1, 5] was “around 10 fold”. The “Percentage of IFN-γ+ out of CD8+ cells after peptide restimulation” value [2] was 24.7% and ~25%, the “Frequency of peptide-specific CD8 T cells in the spleen (peptide-loaded L^d dimers)” value [3] was 9.5%+/−3.7 and the “Protection against lethal parasite challenge (in words)” value (type II parasite) was “protects against lethal type II parasite challenge”.
